Source: patent US7846971B2, “N-halogenated amino acids, N,N-dihalogenated amino acids and derivatives; compositions and methods of using them” (Novabay Pharmaceuticals, Inc., priority 2005, dated 2010)
Values after ≈ are worked out from the molar mass of the structure shown. Where two headings read alike, the source gives them in different places.

Experiments:
[1] = test system: Primary Human Skin Fibroblasts; experiment: XTT cytotoxicity assay on primary human skin fibroblasts; format: cell-based
Method: Cytotoxicity was assessed by a colorimetric assay system, initially described by Scudiero et al., using 3′-(phenylamino-carbonyl)-3,4-tetrazolium-bis (4-methoxy-6-nitro) benzene sulfonic acid hydrate (XTT), ProCheck™ cell viability assay (Evaluation of a soluble tetrazolium/formazan assay for cell growth and drug sensitivity in culture using human and other tumor cell lines described by Scudiero D A, Shoemaker R A H, Paul K D, Monks A, Tierney S, Nofziger T H, Currens M J, Seniff D, Boyd M R. Cancer Res. 1988 Septmeber 1;48(17):4827-33). […] Three cell types were used: mouse lung epithelial cells (L929), primary human skin fibroblast and primary human keratinocyte cells cultured in Dulbecco Modified Eagle's Medium and Keratinocyte defined medium with corresponding growth factors plus antibiotics. Cells were trypsinized and counted under the microscope and seeded at 1000-to-2000 cells per well of a flat-bottom 96-well plate. Cells were allowed to grow over-night at 37° C. Next day, tissue culture media was removed and cells were rinsed with fresh media 1× and then left in 50 μL of tissue culture media. Test articles were prepared as 2-fold dilutions and 200 μL was added into each set of 4-wells (total volume per well=250 μL). Cells were exposed to test articles for 60 min at room temperature. Immediately after the exposed time, test article from each well was removed and cells were fed with 250 μL of fresh media. Plates were incubated at 37° C. for 18-20 hours. The following day media was removed again and replaced with 100 μL/well of fresh media containing 10/100 μL XTT-reagent. Cells were incubated under growth conditions (5% CO2 at 37° C. humidified incubator), protected from light, until color development was achieved. Absorbance was read at 450 nm with reference wavelength at 750 nm using Molecular Device ThermoMax Plate reader, blanking the plate on the medium-only assay blank wells. Untreated cells receiving XTT reagents-only served as positive cell proliferation control.

[2] = format: physicochemical
Description: N,N-dichlorotaurine can be identified and quantitatively determined by UV spectroscopy.

[3] = pH=1.88, after 100 hours; cited from earlier work
[4] = test system: Escherichia coli (ATCC 11229); experiment: Bactericidal activity (colony count, MBC); format: cell-based
Method: To determine the bactericidal activity, we used Escherichia coli (ATCC 11229). The bacterial culture was diluted in sterile saline to prepare inocula. Various test articles were transferred to individual tubes already containing 1.0×10^5 to 2.0×10^5 Colony Forming Units (CFU)/mL bacteria and mixed by gentle vortexing and then incubated at 37° C. for 1 or 24 hours. In an attempt to mimic as far as possible the conditions, which could be produced in vivo if the test articles were used as antiseptics, bacterial plating in a Petri dish was performed immediately after the designated exposure time without the addition of a neutralizer, and independently with addition of neutralizer (as control). Thus, 0.1 mL was removed after 1 or 24 hours exposure times and plated. Plates were incubated at 37° C., and the numbers of bacteria were counted by direct colony count to numerate the surviving bacteria as CFU/mL. Positive growth controls were made with sterile 0.9% saline. All test articles were tested three times.

[5] = XTT cytotoxicity assay on L929 cells; format: cell-based; details: mouse
Method: Cytotoxicity was assessed by a colorimetric assay system, initially described by Scudiero et al., using 3′-(phenylamino-carbonyl)-3,4-tetrazolium-bis (4-methoxy-6-nitro) benzene sulfonic acid hydrate (XTT), ProCheck™ cell viability assay (Evaluation of a soluble tetrazolium/formazan assay for cell growth and drug sensitivity in culture using human and other tumor cell lines described by Scudiero D A, Shoemaker R A H, Paul K D, Monks A, Tierney S, Nofziger T H, Currens M J, Seniff D, Boyd M R. Cancer Res. 1988 Septmeber 1;48(17):4827-33). […] Three cell types were used: mouse lung epithelial cells (L929), primary human skin fibroblast and primary human keratinocyte cells cultured in Dulbecco Modified Eagle's Medium and Keratinocyte defined medium with corresponding growth factors plus antibiotics. Cells were trypsinized and counted under the microscope and seeded at 1000-to-2000 cells per well of a flat-bottom 96-well plate. Cells were allowed to grow over-night at 37° C. Next day, tissue culture media was removed and cells were rinsed with fresh media 1× and then left in 50 μL of tissue culture media. […] Absorbance was read at 450 nm with reference wavelength at 750 nm using Molecular Device ThermoMax Plate reader, blanking the plate on the medium-only assay blank wells. […]

[6] = UV-vis spectrum and concentration of NNDCT solutions at varying pH; format: physicochemical; details: 1.49 mM, pH 3.0 to 5.0
Method: The spectra and the concentrations of the solutions were measured on the UV-vis spectrometer.
Add 8.8 g NaCl, 2 ml of 1.0 M HCl, and 0.278 g of taurine into a 1000-ml volumetric flask, followed by adding about 800 ml of deionized water into the flask. Shake the flask to dissolve NaCl and taurine powders. Then add […] of 0.15M of the NaOCl solution into the flask. Fill the flask up to the mark with deionized water. Stir the solution with a magnetic stirring bar for 5 minutes. The concentration and the pH of the resulting solution were measured on a UV-vis spectrometer and a freshly calibrated Beckman pH meter. This solution has a concentration of 1.49 mM and a pH value of 3.85. […] The final pH of this solution is 3.0. […] The final pH of this solution is 4.85.

[7] = format: physicochemical; remark: listed apart in the source
Description: NNDCT and NCT are spectrophotometrically distinguishable. NCT has a maximum absorbance at 252 nm. […] The solution was sealed in ampoules.

[8] = Volatility test, tightly vs loosely capped bottles; format: physicochemical; details: 1.47 mM in 0.9% saline
Method: NNDCT is not volatile. A solution of 1.47 mM in 0.9% saline at pH 3.5 was filled in two glass bottles. One bottle was capped tightly and another was capped loosely.

[9] = test system: human adenovirus type 5 (Ad5, McEwen strain); experiment: Antiviral plaque assay on A549 cell monolayer; format: cell-based; details: virus mixed with sample 1 hr at 37C; for Effect on monolayer (plaques counted), 10^−0 undiluted: dilution 10^−0; for Effect on monolayer (plaques counted), 10^−1: dilution 10^−1; for Effect on monolayer (plaques counted), 10^−2: dilution 10^−2; for Effect on monolayer (plaques counted), 10^−3: dilution 10^−3; for Effect on monolayer (plaques counted), 10^−4: dilution 10^−4; for Effect on monolayer (plaques counted), 10^−5: dilution 10^−5; for Effect on monolayer (plaques counted), 10^−6: dilution 10^−6
Method: An equal volume of human adenovirus type 5 (Ad5, McEwen strain) was mixed with each of the three samples listed below. The mixtures were incubated at 37C for 1 hr and then diluted in tissue culture medium (Dulbecco's Modified Eagle Medium [DMEM] containing heat inactivated 2% fetal bovine serum). The mixtures were then diluted in 10-fold serial dilutions using the same diluent mentioned above. 0.1 ml of each diluted mixture was inoculated on to a A549 cell monolayer grown in 12 well plates (cell source, ATTC) and allowed to adsorb for 1 hr. The inoculum was removed and the monolayer rinsed with diluent and agarose/DMEM overlay applied. The plates were incubated at 37° C. in 5% CO2 atmosphere for 6 days. The monolayers were then fixed, stained and the plaques counted.

[10] = Homo sapiens, Skin fibroblast, Table 2, pH 3.5, in vitro cytotoxicity, read-out: IC50
[11] = Escherichia coli, ATCC11229, Table 2, pH 3.5, read-out: MBC

For `O=S(=O)(O)CCN(Cl)Cl` [NNDCT, N,N-dichlorotaurine], the IC50 [1, 10] is given as 1440 µg/mL (≈ 7430 µM), the solubility in water [2] is given as “very soluble” and the “loss of N,N-dichlorotaurine” value [3] is given as “less than 5%”. The “killing efficiency of NNDCT at pH 3.5 as compared to NCT at pH 9.5” value ([4]; 60 min exposure, 37° C.) was 1000 fold, the “killing efficiency of NNDCT at pH 3.5 over NNDCT at pH 5.0” value ([4]; 60 min exposure, 37° C.) was “about 300 fold” and the MBC ([4]; Escherichia coli, ATCC11229, 1 h, pH 3.5, isotonic solution, 60 min, 37° C., read-out: MBC (Minimum Bactericidal Concentration)) was 0.136 µg/mL (≈ 0.701 µM). For the same compound, the MBC ([4]; Escherichia coli, ATCC11229, 1 h, pH 5.0, isotonic solution, 60 min, 37° C., read-out: MBC (Minimum Bactericidal Concentration)) was 38 µg/mL (≈ 196 µM), the MBC [4, 11] was 0.29 µg/mL (≈ 1.49 µM) and the “effectiveness against E. coli compared with HOCl” value ([4]; pH 3.5) was “better or as effective”. For the same compound, the viability at 60 min, 7 mM [5] was > 90%, the “spectrum and concentration of NNDCT solution over pH range” value [6] was “did not change” and the “loss of N,N-dichlorotaurine” value ([7]; solution in a vial stored in a refrigerator, three months) was “no more than 13%”. The NNDCT lost ([7]; solution pH 3.5, sealed ampoules, refrigerator (4° C.), 4 weeks, initial 1.47 mM) was 5.4%, the volatility ([8]; pH 3.5) was “not volatile” and the “difference in concentration between tightly and loosely capped bottle” value ([8]; pH 3.5, 4 weeks, room temperature) was “no difference”.
In the case of `O=S(=O)(O)CCNCl` [NCT, N-chlorotaurine], the “factor by which less antimicrobial than NNDCT on an equal concentration basis” value [4] is reported as 1000 fold and the MBC ([4]; Escherichia coli, ATCC11229, 1 h, pH 9.5, read-out: MBC (Minimum Bactericidal Concentration)) is reported as 142 µg/mL (≈ 893 µM).
For `CC(C)(CS(=O)(=O)O)N(Cl)Cl` [Sample 1, N,N-dichloro-1,1-dimethylethanesulphonic acid], the “Effect on monolayer (plaques counted), 10^−0 undiluted” value [9] was “Early toxic”, the “Effect on monolayer (plaques counted), 10^−1” value [9] was 28 and the “Effect on monolayer (plaques counted), 10^−2” value [9] was 17. The “Effect on monolayer (plaques counted), 10^−3” value [9] was 3, the “Effect on monolayer (plaques counted), 10^−4” value [9] was 3 and the “Effect on monolayer (plaques counted), 10^−5” value [9] was 3. For the same compound, the “Effect on monolayer (plaques counted), 10^−6” value [9] was 9.
Povidone-Iodine [reference compound] showed an IC50 ([1]; Table 2, pH 4.2, in vitro cytotoxicity) of 2.5 µg/mL and an MBC ([4]; Table 2, pH 4.2) of 0.38 µg/mL.
With `OCl` [HOCl, hypochlorous acid, reference compound] the IC50 [1, 10] was 47 µg/mL (≈ 896 µM), the MBC [4, 11] was 0.16 µg/mL (≈ 3.05 µM) and the “effective antimicrobial concentration range” value ([4]; pH 3.5, 60 min, 37° C.) was ≥ 0.016 mM. For the same compound, the “effective antimicrobial concentration range” value ([4]; pH 3.5, 24 hrs, 37° C.) was ≥ 0.0016 mM, the “Effect on monolayer (plaques counted), 10^−0 undiluted” value [9] was 14 and the “Effect on monolayer (plaques counted), 10^−1” value [9] was 9. The “Effect on monolayer (plaques counted), 10^−2” value [9] was 3, the “Effect on monolayer (plaques counted), 10^−3” value [9] was 1 and the “Effect on monolayer (plaques counted), 10^−4” value [9] was 4. For the same compound, the “Effect on monolayer (plaques counted), 10^−5” value [9] was 4 and the “Effect on monolayer (plaques counted), 10^−6” value [9] was 1.
